Reference: BigSolDB 2.1

O=c1c(O)c(-c2ccc(O)c(O)c2)oc2cc(O)cc(O)c12
solubility (mole fraction)
Details	292.8 K	298.6 K	303.2 K	308.6 K	314.1 K	318.8 K	322.2 K	325.6 K	331.2 K	333.8 K
in ethanol	0.00135	0.00153	0.00165	0.00178	0.00193	0.00207	0.00218	0.0023	0.0025	0.00255
in methanol	0.000845	0.000919	0.000957	0.00104	0.00113	0.00127	0.00133	0.00142	0.00159	0.00163
in water	5.04e-05	5.51e-05	5.85e-05	6.18e-05	6.53e-05	6.7e-05	6.91e-05	7.13e-05	7.38e-05	7.53e-05
